Test results taken from article PMC6910946, “Multiple roles of Bet v 1 ligands in allergen stabilization and modulation of endosomal protease activity” (Allergy, 2019).
pKd: −log10 of the molar value. “Also recorded” adds a separate entry of the source. Like-named read-outs stand apart in the source and are kept apart here.

How the values were obtained:
[1] = target: T1, Bet_v_1 (endolysosomal proteases of microsomes) (Betula pendula, UniProt P15494); assay: In vitro simulation of endolysosomal degradation of Bet v 1 with microsomes; format: biochemical; settings: for accumulation of N‐terminal cluster peptides during Bet v 1 processing / generation of the immunodominant T‐cell epitope (number of identified peptides): 12 h degradation; for proteolytic stability of Bet v 1 toward endolysosomal proteases: ligand in 10× molar excess, 0-48 h, densitometric analysis of SDS‐PAGE
T1 construct: made in house
T1 sequence (P15494 1-160): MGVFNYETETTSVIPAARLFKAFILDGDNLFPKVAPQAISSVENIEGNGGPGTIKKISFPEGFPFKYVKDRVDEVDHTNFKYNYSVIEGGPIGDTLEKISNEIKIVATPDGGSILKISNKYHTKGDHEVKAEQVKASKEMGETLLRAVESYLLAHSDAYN
Protocol: The endolysosomal degradation assay was performed with ligand‐bound (either DOC, PPE1, or Q3OS in 10× molar excess) and Bet_v_1 without ligands (apo‐Bet_v_1) as previously described.21 Recombinant human cathepsin S and human legumain were used in proteolytic degradation assays. Experimental details are described in the Appendix [Link], [Link].
The endolysosomal degradation assay was performed with ligand-bound (either DOC, PPE1, or Q3OS in 10× molar excess) and Bet v 1 without ligands (apo-Bet v 1) as previously described.^7 The protein (5 µg) was incubated with 7 µg of microsomes in 100 mM citrate buffer pH 4.8 and 2 mM dithiothreitol (DTT) for 0, 0.5, 1, 3, 6, 12, 24, and 48 h at 37°C. The different digestion preparations were analyzed by SDS-PAGE and quantitatively interpreted using Image Lab 4.0.1 Software (Bio-Rad). The generated peptides obtained after 12 h of digestion were analyzed using mass spectrometry with a Q-Exactive Orbitrap Mass Spectrometer (Thermo Fisher Scientific, Waltham, MA, USA), nanoelectrospray, and nano-HPLC (Dionex Ultimate 3000, Thermo Fisher Scientific).
For data analysis, the web-based application MSTools was used.^8 For the semi-quantitative analysis of the abundance of the generated peptides at 12 hours of degradation, the obtained peptide sequences were clustered into 7 groups according to their amino acid sequence (cluster 1, GVF-NYE-TET-TSV-IPA-ARL-FKA-F; cluster 2, AIL-DGD-NLF-PKV-APQ-A; cluster 3, AIS-SVE-NIE-GNG-GPG-TIK-KIS-FPE-G; cluster 4, FPF-KYV-KDR-VDE-VDH-TNF-K; cluster 5, YNY-SVI-EGG-PIG-DTL-EKI-SNE-IKI-VAT-PDG-GSI-LK; cluster 6, ISN-KYH-TKG-DHE-VKA-EQV-KAS-KEM-GET-LLR; and cluster 7, RAV-ESY-LLA-HSD-AYN), and the total sum of peak areas of all sequences per cluster was calculated (in percentage).

Bet_v_1 = target: T2, Bet_v_1 (Betula pendula, UniProt P15494); assay: Surface acoustic wave (SAW) interaction studies, determination of Kd; format: binding
T2 construct: made in house
T2 sequence (P15494 1-160): T1 sequence (P15494 1-160)
Text: Surface acoustic wave (SAW) technology and NMR spectroscopy were used to observe the interaction of Bet_v_1 with the selected compounds, including determination of the dissociation constant (K d). The influence of ligand binding on the secondary structure elements and the thermal stability of Bet_v_1 was monitored using circular dichroism (CD, JASCO J‐815 spectropolarimeter, Jasco) and Fourier transform infrared (FTIR) spectroscopy (Tensor II FTIR system, Bruker Optics Inc). A detailed description of these methods is available (Appendix [Link], [Link]).
To assess the interactions between Bet_v_1 and Q3OS, DOC, PPE1, LTA, or LPS, we determined the dissociation constants (K d) using SAW binding assays (Table 1, Figure S1), a more quantitative approach than previously described qualitative assays.11, 25 In addition, the LPS‐substructure Kdo2‐Lipid A (Kdo2) was used for binding studies, due to its more homogenous structure but similar immune stimulatory activity when compared to native LPS.
For the determination of the affinity constant Kd, we used surface acoustic wave (SAW) technology. The interaction of the six ligands with Bet v 1 was investigated using a sam® 5BLUE biosensor instrument (Nanotemper, Munich, Germany). Bet v 1 was immobilized in PBS on the surface of a SAW CM-Dextran 3D sensor chip. […] For calculating the affinity constant Kd, different concentrations of the ligands dissolved in a 5 mM sodium phosphate buffer, pH 7.4, were applied to the Bet v 1-coupled chip. Depending on the ligand, the concentration range of the injected ligand varied between 5 µM and 500 µM. For the removal of residual ligand between the sample injections, the chip was washed with regeneration buffer (10 mM citric acid buffer, pH 2.8). The recorded SAW phase changes were analyzed using the software TraceDrawer 1.7 (Ridgeview Instruments, Uppsala, Sweden). The affinity constant Kd was calculated by kinetic evaluation and affinity/EC50 estimation. For kinetic evaluation, an OneToOne curve fit was chosen to match the raw data. Experiments were performed with two coated chips in duplicate, and the coupling efficiency was evaluated using a mouse monoclonal anti-Bet v 1 antibody.

[2] = test system: murine BMDCs / CD4+ T‐cell hybridoma cells specific for epitope Thr142‐Ala153; assay: T-cell proliferation assay: Bet v 1 epitope presentation by BMDCs to CD4+ T-cell hybridomas (IL-2); format: cell-based, mouse; settings: Bet v 1 10 µg/mL with 10-fold molar excess of ligand; 16, 24, 32, 48 h
Protocol: The ability of ligand‐loaded Bet_v_1 to induce IgE‐antigen cross‐linking and basophil degranulation was assessed by mediator‐release assays using rat basophil (RBL‐2H3) cells, transfected with the human high‐affinity IgE receptor (FcεRI), as previously described.2, 24 In vitro uptake of labeled Bet_v_1 was performed using CD11c^+ murine bone marrow–derived dendritic cells (BMDCs). The maturation of human monocyte‐derived dendritic cells (moDCs) was analyzed as previously described.2 T‐cell proliferation assays using CD4^+ T‐cell hybridomas were performed as previously described.17 A detailed description of the in vitro assays is available (Appendix [Link], [Link]).
In order to test the relevance of the identified Bet_v_1 ligands in processing and presentation by DCs in a time‐dependent manner, we incubated BMDCs with Bet_v_1 in complex with different ligands and detected the presentation of Bet_v_1 by using CD4^+ T‐cell hybridoma cells specific for the immune‐dominant T‐cell epitope (Thr142‐Ala153). T‐cell proliferation was monitored indirectly by IL‐2 secretion (Figure 5).
Bet v 1 was incubated over night with a 10-fold molar excess of either Q3OS, PPB1, PPE1, or DOC before incubation with murine BMDCs at a concentration of 10 μg/mL in BMDC medium (online supporting information). After 16, 24, 32, and 48h, DCs were washed and CD4^+ T-cell hybridomas specific for the immune-dominant epitope 142-153 of Bet v 1 were added to the culture at a ratio of 1:10 (DC:T-cell) for 24h^17. Supernatants were harvested and IL-2 levels were determined by ELISA (Invitrogen, Thermo Fisher Scientific, Waltham, MA, USA). As a reference, BMDCs were pulsed at each time point with different concentrations of peptide 142-153 and co-cultured with CD4^+ T-cell hybridomas. By interpolating in a standard curve, a µM peptide equivalent from the measured IL-2 was calculated from DCs pulsed with different peptide concentrations. The assays were carried out in triplicates.

[3] = 12 h incubation, mass spectrometry
[4] = Bet v 1 immobilized on chip, ligands in 5 mM sodium phosphate buffer pH 7.4, read-out: Binding affinity K d (SAW)

Row | SMILES | accumulation of N‐terminal cluster peptides during Bet v 1 processing [1] | generation of the immunodominant T‐cell epitope (number of identified peptides) [1] | Bet v 1 peptide diversity reduced to (versus apo form) [1, 3] [%] | proteolytic stability of Bet v 1 toward endolysosomal proteases [1] | pKd (Bet_v_1; Binding affinity K d (SAW)) | pKd (Bet_v_1; Kd (SAW, Fig. S1)) | MHCII presentation of Bet v 1 epitope (Thr142‐Ala153) on DCs, IL‐2 secretion [2] | pKd (Bet_v_1; [4]) | diversity of peptides versus apo form of Bet v 1 [1, 3] [fold] | pKd (Bet_v_1; Fig. S1 sensorgrams, read-out: Kd (SAW, Fig. S1))
1 | C[C@H](CCC(=O)O)[C@H]1CC[C@H]2[C@@H]3CC[C@@H]4C[C@H](O)CC[C@]4(C)[C@H]3C[C@H](O)[C@]12C [DOC, sodium deoxycholate, reference compound] | preferentially accumulated the two N‐terminal cluster peptides | more efficient generation of the immunodominant T‐cell epitope | 69.7 | enhanced proteolytic stability | 4.23 | 4.23 | affected only after 48 hours | – | – | –
2 | CCC1C(=O)CC(O)C1/C=C/C(O)CCCCCCCC(=O)O (stereo not drawn) [PPE1, E1 phytoprostanes] | preferentially accumulated the two N‐terminal cluster peptides | – | 53.9 | enhanced proteolytic stability | – | – | consistently affected the MHCII presentation; also recorded: unique reduction in the presentation of the T‐cell epitopes | 6.30 | – | –
3 | O=c1c(O[C@@H]2O[C@H](CO)[C@@H](O)[C@H](O)[C@H]2O[C@@H]2O[C@H](CO)[C@@H](O)[C@H](O)[C@H]2O)c(-c2ccc(O)c(O)c2)oc2cc(O)cc(O)c12 [Q3OS, quercetin 3‐O‐sophoroside] | – | more efficient generation of the immunodominant T‐cell epitope | – | only a weakly stabilizing effect over the first 12 hours | – | – | did not affect the presentation | 5.82 | 2 | 5.83
